Where two headings read alike, the source gives them in different places.

This note sets out measurements from patent publication US20260226427A1, “TEST SYSTEM COMPRISING STABLY CYP-TRANSFECTED OR TRANSDUCED MAMMALIAN CELLS” (BRANDENBURGISCHE TECHNISCHE UNIVERSITÄT COTTBUS-SENFTENBERG, priority 2023, published 2026).

For one data set, the target named is T1, CYP1A2 (Homo sapiens, UniProt P05177).
T1 sequence (P05177 2-516 limits assumed): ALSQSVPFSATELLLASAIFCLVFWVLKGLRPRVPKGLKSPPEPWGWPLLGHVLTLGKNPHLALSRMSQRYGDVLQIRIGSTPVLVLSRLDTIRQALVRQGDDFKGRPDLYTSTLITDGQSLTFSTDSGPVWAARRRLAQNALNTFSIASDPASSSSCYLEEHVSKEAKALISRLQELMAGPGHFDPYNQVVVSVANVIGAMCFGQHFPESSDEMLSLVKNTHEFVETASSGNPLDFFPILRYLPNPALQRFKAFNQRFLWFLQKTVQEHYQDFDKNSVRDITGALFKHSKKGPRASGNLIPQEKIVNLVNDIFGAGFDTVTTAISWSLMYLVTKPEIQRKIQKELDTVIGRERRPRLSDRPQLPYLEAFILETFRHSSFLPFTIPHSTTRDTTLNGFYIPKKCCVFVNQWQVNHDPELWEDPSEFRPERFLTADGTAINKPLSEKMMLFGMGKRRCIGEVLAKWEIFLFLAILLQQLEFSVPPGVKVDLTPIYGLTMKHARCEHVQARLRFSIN

The target of data set [1] is T2, CYP3A4 (Homo sapiens, UniProt P08684).
T2 sequence (P08684 2-503 limits assumed): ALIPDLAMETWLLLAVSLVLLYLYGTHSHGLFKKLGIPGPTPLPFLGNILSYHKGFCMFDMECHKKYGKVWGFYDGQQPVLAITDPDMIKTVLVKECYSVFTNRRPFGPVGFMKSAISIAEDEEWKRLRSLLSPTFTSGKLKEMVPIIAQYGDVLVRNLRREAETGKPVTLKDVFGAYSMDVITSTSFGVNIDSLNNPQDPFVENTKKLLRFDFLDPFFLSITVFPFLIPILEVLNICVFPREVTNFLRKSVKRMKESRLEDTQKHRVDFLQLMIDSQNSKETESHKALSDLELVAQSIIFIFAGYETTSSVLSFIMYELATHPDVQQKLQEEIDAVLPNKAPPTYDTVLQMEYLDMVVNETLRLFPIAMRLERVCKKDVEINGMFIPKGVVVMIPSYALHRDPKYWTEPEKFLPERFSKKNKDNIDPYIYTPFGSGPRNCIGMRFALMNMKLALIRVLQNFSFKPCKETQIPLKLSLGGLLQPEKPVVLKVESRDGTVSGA
Data set [2] has as its target T2, CYP3A4. This is another data set of the same source.

`CCOc1ccc(NC(C)=O)cc1` [phenacetin]: at CYP1A2 (2 h), the phenacetin metabolite production came to 17 µg. Besides, at CYP1A2 (48 h), the phenacetin metabolite production worked out at 101 µg and the “yield of main metabolite m(acetaminophen)” value was 101 ± 4 µg.
Take `C[C@]12CC[C@H]3[C@@H](CCC4=CC(=O)CC[C@@]43C)[C@@H]1CC[C@@H]2O` [testosterone]: on CYP3A4 [1], the “yield of main metabolite (6β-hydroxytestosterone) in 200 μL preparation” value was “up to 100 ng” and the “yield of main metabolite in 200 μL metabolism preparation” value is 100 to 200 ng. In addition, the “yield of main metabolite m(6β-OH-T)” value on CYP3A4 [2] was determined as 17.3 ± 1.4 µg.
